Data taken from patent US20250154088A1, “PRODUCT 1,3-BUTYLENE GLYCOL” (KH Neochem Co., Ltd., priority 2022, published 2025).

Experiments:
[1] = Basic coloration test; type: physicochemical; conditions: with water and potassium hydroxide, heat treatment at 90° C. for one hour, cooled to room temperature; spectral colorimeter
Text: The product 1, 3-butylene glycol in the present embodiment has an advantage of not easily coloring under a basic condition. Coloration under a basic condition can be evaluated by a method described in examples to be described below (basic coloration test). The color saturation (b*) of the CIE color space (JIS Z 8729) when the product 1, 3-butylene glycol of the present embodiment has been evaluated by the method is not particularly limited; however, for example, the average value of three times of measurement is preferably 4.0 or less, more preferably 3.8 or less and particularly preferably 3.5 or less.
The product 1, 3-butylene glycols obtained in Examples 1 to 3 and Comparative Example 1 were evaluated for coloration under a basic condition according to the following method.
13 g of water and 2 g of potassium hydroxide were added to a 100 mL heat-resistant medium bottle and mixed together, and 6 g of the product 1, 3-butylene glycol, which was a subject, was further added thereto. Next, the heat-resistant medium bottle was immersed in a water bath, and a heat treatment was performed at 90° C. for one hour. After the solution that had been subjected to the heat treatment was cooled to room temperature, the color saturation (b*) of the solution was measured with a spectral colorimeter SE2000 manufactured by Nippon Denshoku Industries Co., Ltd. and regarded as a grade.

[2] = test system: cysteine-containing peptide for DPRA; assay: Skin sensitization test (direct peptide reactivity assay, DPRA); conditions: HPLC after 72±2 hours, relative value with result of Comparative Example 1 regarded as 100
Text: The product 1, 3-butylene glycol in the present embodiment causes less skin sensitization. Here, the skin sensitization refers to the occurrence of an allergic reaction after the product 1, 3-butylene glycol comes into contact with the skin. In the evaluation of skin sensitization, it has been normal to use experimental animals, but the direct peptide reactivity assay (DPRA), which is an in Chemico test, was adopted as an alternative test in OECD guideline TG442C in 2015 from the viewpoint of animal welfare, and, in the present embodiment as well, the skin sensitization is evaluated by a test in which DPRA is used. In more detail, the skin sensitization is evaluated according to a method described in examples to be described below.
The product 1, 3-butylene glycols obtained in Examples 1 to 3 and Comparative Example 1 were evaluated for skin sensitization according to the following method.
15 mg of cysteine-containing peptide for DPRA manufactured by Scrum Inc. and 30 mL of a 0.05 M phosphate buffer were mixed together, thereby preparing a 0.05 M phosphate buffer solution containing 0.667 mM of the peptide (hereinafter, peptide solution). After one hour elapsed from the preparation of the peptide solution, 750 μL of the peptide solution and 250 μL of acetonitrile were put into each of three brown sample bottles for HPLC, thereby preparing three reference solutions. After two hours elapsed from the preparation of the reference solutions, 750 μL of the peptide solution, 200 μL of acetonitrile and 50 μL of 1, 3-butylene glycol were put into a separate brown sample bottle for HPLC, thereby preparing a specimen solution (specimen solution 1). Furthermore, after four hours elapsed and six hours elapsed from the preparation of the reference solutions, specimen solutions were prepared by the same operation (specimen solution 2 and specimen solution 3). Each of the three reference solutions and the specimen solutions (specimen solution 1, specimen solution 2 and specimen solution 3) was measured by an HPLC analysis after 72±2 hours elapsed from the preparation of each solution, and the three-time average value of the peak heights of peptide in each of the reference solutions and the specimen solutions was calculated. A peptide reduction percentage was calculated from the calculated three-time average value using the following formula (3) and regarded as an evaluation result.
In the present test, a specimen solution of the product 1, 3-butylene glycol of Comparative Example 1 that served as a reference and a specimen solution of the product 1, 3-butylene glycol of each of Examples 1 to 3 were each tested on the same day from the viewpoint of reproducibility.
Analysis device: Agilent 1260 InfinityII manufactured by Agilent Technologies, Inc. […]

SMILES	Color saturation (b*) [1]	Relative value of peptide reduction percentage [2]
CC(O)CCO (centres unmarked) [Comparative Example 1, 1,3-butylene glycol]	19.6	100
CC(O)CCO (centres unmarked) [Example 1, 1,3-butylene glycol]	2.8	45
CC(O)CCO (centres unmarked) [Example 2, 1,3-butylene glycol]	3.2	43
CC(O)CCO (centres unmarked) [Example 3, 1,3-butylene glycol]	0.7	22
